Laboratory results published in patent US20090111804A1, “ARYLINDENOPYRIMIDINES AND THEIR USE AS ADENOSINE A2a” (priority 2007, published 2009).

Legend:
[1] = target: T1, A1 (Homo sapiens, UniProt P30542); experiment: A1 cell-based functional assay
T1 sequence (P30542 1-326): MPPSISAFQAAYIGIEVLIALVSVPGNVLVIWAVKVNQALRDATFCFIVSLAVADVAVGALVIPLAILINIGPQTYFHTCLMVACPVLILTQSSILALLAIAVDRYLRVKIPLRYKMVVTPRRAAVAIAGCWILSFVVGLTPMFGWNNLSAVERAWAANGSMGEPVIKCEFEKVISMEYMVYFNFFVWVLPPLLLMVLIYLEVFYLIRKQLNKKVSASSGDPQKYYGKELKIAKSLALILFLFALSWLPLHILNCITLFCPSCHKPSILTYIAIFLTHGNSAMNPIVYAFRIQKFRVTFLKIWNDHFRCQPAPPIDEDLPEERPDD

[2] = target: T2, human adenosine A2a receptors (Homo sapiens, UniProt P29274); experiment: Adenosine A2a receptor cell-based functional assay (cAMP-inducible beta-galactosidase reporter); details: CHO-K1 cells overexpressing human adenosine A2a receptors; antagonist assay with 50 nM NECA
T2 construct: expressed in transfected cells; host or cells: CHO-K1
T2 sequence (P29274 whole entry): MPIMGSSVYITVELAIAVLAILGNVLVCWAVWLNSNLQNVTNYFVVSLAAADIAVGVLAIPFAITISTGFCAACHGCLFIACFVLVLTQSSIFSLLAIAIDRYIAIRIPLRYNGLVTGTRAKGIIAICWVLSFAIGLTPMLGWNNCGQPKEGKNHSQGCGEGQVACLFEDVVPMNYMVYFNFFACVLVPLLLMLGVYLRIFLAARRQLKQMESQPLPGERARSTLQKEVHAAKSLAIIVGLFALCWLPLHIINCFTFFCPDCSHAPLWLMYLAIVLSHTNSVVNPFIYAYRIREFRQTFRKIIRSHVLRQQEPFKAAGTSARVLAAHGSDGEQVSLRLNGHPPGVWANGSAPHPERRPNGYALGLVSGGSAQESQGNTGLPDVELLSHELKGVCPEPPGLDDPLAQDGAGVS
Description: Nonspecific binding was determined by […] NECA. […] Data was analyzed in Microsoft Excel and GraphPad Prism programs. […] For agonist assay, adenosine A2a receptor agonist NECA was subsequently added and cell incubated at 37° C., 5% CO2 for 5 hrs before stopping reaction. In the case of antagonist assay, cells were incubated with antagonists for 5 minutes at R.T. followed by addition of 50 nM NECA. Cells were then incubated at 37° C., 5% CO2 for 5 hrs before stopping experiments by washing cells with PBS twice. […] Color was allowed to develop at 37° C. for 1 h or until reasonable signal appeared. […] Data was analyzed in Microsoft Excel and GraphPad Prism programs.

## Nc1nc(-c2ccccc2)c2c(n1)-c1cc(OCCN3CCOCC3)ccc1C2=O [A, 2-Amino-8-(2-morpholin-4-yl-ethoxy)-4-phenyl-indeno[1,2-d]pyrimidin-5-one]
[1]
  Ki: 49.6 nM

## Nc1nc(-c2ccccc2)c2c(n1)-c1cc(Cc3cccnc3)ccc1C2=O [C, 2-Amino-4-phenyl-8-pyridin-3-ylmethyl-indeno[1,2-d]pyrimidin-5-one]
[2]
  Ki: 0.4 nM
[1]
  Ki: 4.4 nM

## CC1CCC(C)N1Cc1ccc2c(c1)-c1nc(N)nc(-c3ccccc3)c1C2=O (centres unmarked) [B, 2-Amino-8-(2,5-dimethyl-pyrrolidin-1-ylmethyl)-4-phenyl-indeno[1,2-d]pyrimidin-5-one]
[2]
  Ki: 13.1 nM
[1]
  Ki: 37.3 nM
